Measurements: patent US7763615B2, “Ecteinascidin analogs for use as antitumour agents” (priority 2001, dated 2010)
Read-outs that look alike come from different tables or passages of the source.

Legend:
Assay in all cases: cells
Type in all cases: cell-based
LOVO = conditions: Homo sapiens
How it was run: (§1)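 Readout: SRB OD490, triplicate wells. Setup: 5×10^3 cells/well, RPMI 1640 + 10% FBS, 37° C, 5% CO2; 18 h pre-attachment; 48 h sample exposure, 10 to 10^−8 μg/ml. Outputs GI, TGI (cytostatic), LC (cytotoxic).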

HELA = conditions: for GI50 / CC50: Homo sapiens
How it was run: as §1

LOVO-DOX = conditions: Homo sapiens
How it was run: as §1

LNCAP = conditions: Homo sapiens
How it was run: as §1

DU145 = conditions: Homo sapiens
How it was run: as §1

IGROV-ET = conditions: Homo sapiens
How it was run: as §1

MEL-28 = conditions: Homo sapiens
How it was run: as §1

SK-BR3 = conditions: Homo sapiens
How it was run: as §1

HELA-APL = conditions: for GI50 / CC50: Homo sapiens
How it was run: as §1

PANC-1 = conditions: Homo sapiens
How it was run: as §1

K562 = conditions: Homo sapiens
How it was run: as §1

A549 = conditions: for GI50: read-out: GI50
How it was run: as §1

IGROV = conditions: Homo sapiens
How it was run: as §1

HT29 = system: HT29
How it was run: as §1

[1] = LoVo, 48 h, 48 hours exposure, SRB
[2] = 48 h, LOVO-DOX, 48 hours exposure, SRB
[3] = LNCaP, 48 h, 48 hours exposure, SRB
[4] = DU-145, 48 h, DU145, 48 hours exposure, SRB
[5] = 48 h, IGROV-ET, 48 hours exposure, SRB
[6] = SK-MEL-28, 48 h, MEL-28, 48 hours exposure, SRB
[7] = SK-BR-3, 48 h, SK-BR3, 48 hours exposure, SRB
[8] = HELA-APL, 48 hours exposure, SRB
[9] = PANC-1, 48 h, PANC-1, 48 hours exposure, SRB
[10] = K562, 48 h, K562, 48 hours exposure, SRB
[11] = Homo sapiens, HT-29, 48 h, HT29, 48 hours exposure, SRB

COc1c(C)cc2c(c1O)[C@@H]1C3[C@@H]4SC[C@]5(C(=O)COC[C@@H](c6c7c(c(C)c(OC(C)=O)c64)OCO7)N3[C@@H](C#N)[C@H](C2)N1C)c1[nH]c2ccccc2c1CCN5C (stereo partly drawn) [Compound 14]
GI50 (LOVO; [1]): 0.141 µM | IC (TGI) (LOVO; [1]): 0.393 µM | CC50 (LOVO; LOVO, 48 hours exposure, SRB, read-out: LC50 (the source's name)): 1.1 µM | TGI (HELA; HELA, 48 hours exposure, SRB): 3.10E−07 Molar | GI50 (HELA; HELA, 48 hours exposure, SRB): 0.114 µM | CC50 (HELA; HELA, 48 hours exposure, SRB, read-out: LC50 (the source's name)): 0.81 µM | GI50 (LOVO-DOX; [2]): 0.584 µM | IC (TGI) (LOVO-DOX; [2]): 3.84 µM | CC50 (LOVO-DOX; LOVO-DOX, 48 hours exposure, SRB, read-out: LC50 (the source's name)): 12.9 µM | GI50 (LNCAP; [3]): 0.0612 µM | IC (TGI) (LNCAP; [3]): 0.177 µM | CC50 (LNCAP; LNCAP, 48 hours exposure, SRB, read-out: LC50 (the source's name)): 0.535 µM | GI50 (DU145; [4]): 0.0946 µM | IC (TGI) (DU145; [4]): 1.39 µM | CC50 (DU145; DU-145, DU145, 48 hours exposure, SRB, read-out: LC50 (the source's name)): 12.9 µM | GI50 (IGROV-ET; [5]): 0.569 µM | IC (TGI) (IGROV-ET; [5]): 1.3 µM | CC50 (IGROV-ET; IGROV-ET, 48 hours exposure, SRB, read-out: LC50 (the source's name)): 12.9 µM | GI50 (MEL-28; [6]): 0.198 µM | IC (TGI) (MEL-28; [6]): 0.519 µM | CC50 (MEL-28; SK-MEL-28, MEL-28, 48 hours exposure, SRB, read-out: LC50 (the source's name)): 2.37 µM | GI50 (SK-BR3; [7]): 0.217 µM | IC (TGI) (SK-BR3; [7]): 0.537 µM | CC50 (SK-BR3; SK-BR-3, SK-BR3, 48 hours exposure, SRB, read-out: LC50 (the source's name)): 1.62 µM | TGI (HELA-APL; [8]): 4.88E−07 Molar | GI50 (HELA-APL; 48 h): 0.243 µM | CC50 (HELA-APL; HELA-APL, 48 hours exposure, SRB, read-out: LC50 (the source's name)): 0.98 µM | GI50 (PANC-1; [9]): 0.276 µM | IC (TGI) (PANC-1; [9]): 0.825 µM | CC50 (PANC-1; PANC-1, 48 hours exposure, SRB, read-out: LC50 (the source's name)): 12.9 µM | GI50 (K562; [10]): 0.0447 µM | IC (TGI) (K562; [10]): 0.174 µM | CC50 (K562; K562, 48 hours exposure, SRB, read-out: LC50 (the source's name)): 1.29 µM | TGI (A549; A549, 48 hours exposure, SRB): 8.25E−07 Molar | GI50 (A549; A549, 48 hours exposure, SRB): 0.264 µM | CC50 (A549; A549, 48 hours exposure, SRB, read-out: LC50 (the source's name)): 6.86 µM | GI50 (IGROV; 48 h, 48 hours exposure, SRB): 0.226 µM | IC (TGI) (IGROV; 48 h, 48 hours exposure, SRB): 0.744 µM | CC50 (IGROV; 48 hours exposure, SRB, read-out: LC50 (the source's name)): 5.14 µM | GI50 (HT29; HT29, 48 hours exposure, SRB): 0.418 µM | TGI (HT29; HT29, 48 hours exposure, SRB): 1.59E−06 Molar | CC50 (HT29; HT29, 48 hours exposure, SRB, read-out: LC50 (the source's name)): 12.9 µM

COc1c(C)cc2c(c1O)[C@@H]1C3[C@@H]4SC[C@]5(NCCc6c5[nH]c5ccccc65)C(=O)COC[C@@H](c5c6c(c(C)c(OC(=O)C(F)(F)C(F)(F)C(F)(F)F)c54)OCO6)N3[C@@H](C#N)[C@H](C2)N1C (stereo partly drawn) [Compound 51]
GI50 (LOVO; [1]): 0.0211 µM | IC (TGI) (LOVO; [1]): 0.0388 µM | CC50 (LOVO; LoVo, 48 h, read-out: LC50): 0.071 µM | TGI (HELA; HELA, 48 hours exposure, SRB): 4.85E−08 Molar | CC50 (HELA; HeLa, 48 h, read-out: LC50): 0.098 µM | GI50 (HELA; HELA, 48 hours exposure, SRB): 0.024 µM | GI50 (LOVO-DOX; [2]): 0.381 µM | IC (TGI) (LOVO-DOX; [2]): 3.09 µM | CC50 (LOVO-DOX; 48 h, read-out: LC50): 11.2 µM | GI50 (LNCAP; [3]): 0.0131 µM | IC (TGI) (LNCAP; [3]): 0.027 µM | CC50 (LNCAP; LNCaP, 48 h, read-out: LC50): 0.0548 µM | GI50 (DU145; [4]): 0.0483 µM | IC (TGI) (DU145; [4]): 0.323 µM | CC50 (DU145; DU-145, 48 h, read-out: LC50): 11.2 µM | GI50 (IGROV-ET; [5]): 0.263 µM | IC (TGI) (IGROV-ET; [5]): 7.47 µM | CC50 (IGROV-ET; 48 h, read-out: LC50): 11.2 µM | GI50 (MEL-28; [6]): 0.0284 µM | IC (TGI) (MEL-28; [6]): 0.0503 µM | CC50 (MEL-28; SK-MEL-28, 48 h, read-out: LC50): 0.0893 µM | GI50 (SK-BR3; [7]): 0.0398 µM | IC (TGI) (SK-BR3; [7]): 0.0993 µM | CC50 (SK-BR3; SK-BR-3, 48 h, read-out: LC50): 3.11 µM | TGI (HELA-APL; [8]): 4.97E−08 Molar | GI50 (HELA-APL; 48 h): 0.0291 µM | CC50 (HELA-APL; 48 h, read-out: LC50): 0.0846 µM | GI50 (PANC-1; [9]): 0.0419 µM | IC (TGI) (PANC-1; [9]): 0.133 µM | CC50 (PANC-1; PANC-1, 48 h, read-out: LC50): 2 µM | GI50 (K562; [10]): 0.0165 µM | IC (TGI) (K562; [10]): 0.0462 µM | CC50 (K562; K562, 48 h, read-out: LC50): 0.114 µM | GI50 (A549; Homo sapiens, A549, 48 h, A549, 48 hours exposure, SRB): 0.0267 µM | IC (TGI) (A549; Homo sapiens, A549, 48 h, A549, 48 hours exposure, SRB, read-out: TGI): 0.0611 µM | CC50 (A549; Homo sapiens, A549, 48 h, read-out: LC50, A549, 48 hours exposure, SRB): 1.29 µM | GI50 (IGROV; 48 h, 48 hours exposure, SRB): 0.0323 µM | IC (TGI) (IGROV; 48 h, 48 hours exposure, SRB): 0.0633 µM | CC50 (IGROV; 48 h, read-out: LC50): 3.55 µM | GI50 (HT29; [11]): 0.0382 µM | IC (TGI) (HT29; [11]): 1.31 µM | CC50 (HT29; Homo sapiens, HT-29, 48 h, read-out: LC50, HT29, 48 hours exposure, SRB): 11.1 µM
